The text below walks through data of US8604220B2, “Isolation of Simalikalactone E and use thereof as a medicament, in the treatment of malaria” (priority 2009, dated 2013).

The test system of data set [1] is P. vinckei petteri. Kind of data set: Antimalarial activity in vivo, mice infected with P. vinckei petteri (Peters test). More on the design: species or system Plasmodium vinckei petteri. The following applies: for ED50, dose inhibiting 50% of the growth of P. vinckei petteri: mice, 4 days; for survival of the mice compared with chloroquine: IP route. The procedure:
The antimalarial activity of SkE was evaluated on female Swiss mice (22 g±2) infected with P. vinckei petteri. Before infection of the mice having been used for the test, the parasites were thawed, injected and maintained by passaging in two batches of mice. The parasitized blood was taken from the retro-orbital sinus and each mouse of the study was infected with 2×10^7 parasites intraperitoneally. The infected animals were divided up into batches of 5 per cage and were treated intraperitoneally each day for 4 days. The SkE was tested at 4 concentrations prepared in 90% DMSO (intraperitoneal route) or carboxymethylcellulose (oral route) in such a way that each mouse receives 200 μl of preparation. The experiment included control parasitized mice receiving 200 μl of 90% DMSO or CMC alone orally, and 3 batches of 5 mice, each of these batches being treated with solutions of chloroquine at 1, 5 and 10 mg/kg diluted in PBS (IP).
At the end of the treatment (5 d after the infection), a blood smear was performed from a drop of blood originating from the tail of each mouse, fixed with methanol and stained with Giemsa. The slides were examined under a microscope and the parasitemia counted for 10 000 red blood cells.
The survival of the mice was monitored for 21 days.

Data set [2] concerns primary rodent hepatocytes. Kind of data set: In vitro cytotoxicity on primary rodent hepatocytes, MTT assay. It counts as cell-based, mouse. The following applies: the other two experiments; highest concentration tested 5.54 μM. The procedure:
(§1) In parallel, the cytotoxicity of the compound was evaluated on human and rodent hepatocytes treated under the same conditions as in the assays for activity of the test compound, by means of the MTT (tetrazolium) colorimetric assay (Mosmann et al., 1983). After incubation of the primary rodent or human hepatocytes for 2 days or 5 days, respectively, with the various concentrations of the test compound, 100 μl of MTT solution ([…]) were added to each well. The plates were then incubated for 4 hours at 37° C. The formazan crystals were then dissolved in 100 μl of DMSO-ethanol mixture (V/V). The optical density was measured by spectrophotometry at 540 nm. The results are expressed as percentage cell viability relative to the untreated control.
In general terms: Formazan colour is commonly taken as a measure of viable cells.

Test in data set [3]: as above
The class given is cell-based, mouse. Particulars: Swiss, mouse, primary hepatocytes; one of the 3 experiments carried out; read-out: cytotoxicity IC50 on murine hepatocytes. The protocol: as §1

Data set [4] is described as follows: Cytotoxicity on THP1 cells. The class given is cell-based. Particulars: human.
The test system of data set [5] is liver stages of Plasmodium yoelii. Description: In vitro activity against liver stages of P. yoelii in mouse primary hepatocytes. The following applies: for IC50: Plasmodium yoelii, Hepatocyte, liver stages, 48 hours, SkE mean of three experiments, read-out: IC50 on murine hepatocytes infected with P. yoelii. The class given is cell-based. The procedure:
(§2) The in vitro activity of SkE against the pre-erythrocytic stages was tested on different Plasmodium species. […] The in vitro assays were carried out using cultures of human primary hepatocytes (HH) or mouse primary hepatocytes (MH), respectively. The primary cells were isolated by collagenase perfusion of pieces of liver (obtained from humans or from female Swiss mice, respectively), followed by purification of the separated cells on a percoll gradient. The hepatocytes were seeded into 96-well microplates (35 000 MH/well and 82 500 HH/well) and maintained in culture at 37° C. and 5% CO2 in a William medium supplemented with 10% FCS (Hyclone), 100 U/ml of penicillin, […] of streptomycin, 2 mM of glutamine, 5 μg/ml of insulin and 5×10^−7 M of hydrocortisone hemisuccinate. A stock solution of SkE was prepared in DMSO at 200 mg/ml, and then diluted in complete medium described above so as to obtain the desired concentrations. The hepatocytes were infected with P. yoelii sporozoites (30 000) or P. falciparum sporozoites (40 000). The SkE compound was added simultaneously with sporozoites at various concentrations. The culture medium was then replaced 3 h after the inoculation of the sporozoites, and then every day. The cultures were fixed 48 hours after the infection for P. yoelii, and 5 days after infection for P. falciparum. The inhibitory effect of the compound was quantified, after fluorescent immunolabeling of the liver schizonts with a mouse serum directed against PfHSP70, by fluorescence microscopy analysis.

In data set [6] the test system is Vero cells. Kind of data set: Cytotoxicity on Vero cells, tritiated hypoxanthine incorporation. It counts as cell-based, monkey. The following applies: for toxicity compared with Simalikalactone D: mammalian cell lines (Vero cells). The protocol: (§3) This evaluation is carried out on two cell types, the MCF-7 line, which is a mammary tumor cell line, and Vero cells (monkey kidney cells).
(§4) VERO cells are monkey kidney epithelial cells. They are cultured in the same way as the MCF-7, but in EMEM medium supplemented with 10% FCS, nonessential amino acids, sodium pyruvate, HEPES and glutamine.
(§5) The evaluation of cytotoxicity follows the same method as the antimalarial activity test, but with P. falciparum being replaced with the MCF-7 or VERO cells.
(§6) However, there are a few minor modifications, owing to the different mode of culture. This is because the cells used for the cytotoxicity tests are adherent cells and their growth is slower. Consequently, they are seeded in 96-well plates 24 hours before they are brought into contact with the test products. After 24 h, the cells adhere to the bottom of the well, the medium is changed, and then the test molecules are added, the dilution thereof being carried out in complete medium. The medium used depends on the cells used (DMEM or EMEM).
(§7) In the same way as for the antimalarial activity test, tritiated hypoxanthine is added 24 hours after bringing into contact with the products, and the plate is placed in the freezer 48 hours later. Finally, the radioactivity is measured as for the antimalarial activity test. The evaluation of the IC50 values is carried out graphically as for that of P. falciparum.

Test in data set [7]: as above
The class given is cell-based, monkey. The following applies: monkey, Vero cells (monkey kidney epithelial cells). The procedure: as §3, §4, §5, §6, §7

Data set [8] relates to P. falciparum (F32 Tanzania, FcB1 Colombia, W2 Indochina strains). Kind of data set: Antiplasmodial activity in vitro, tritiated hypoxanthine incorporation. The class given is cell-based. Particulars: Plasmodium falciparum, 48 h, read-out: IC50, inhibits 50% of the growth of P. falciparum in culture. The procedure:
The following three strains of Plasmodium falciparum were used: • chloroquine-sensitive F32 Tanzania • chloroquine-resistant FcB1 Colombia • W2 Indochina.
The antimalarial activity of the various products is evaluated by means of the radioactive method using tritiated hypoxanthine, described by Desjardins et al., with the modifications introduced by Benoit et al. (Desjardins R. E. et al., Antimicrob. Agents Chemother, 1979, 16: 710-718; F. Benoit et al. Trans. Roy. Soc. Trop. Med. Hyg. 89: 217-218).
The test is carried out in 96-well culture plates (supplier: TPP, Switzerland) on cultures mainly at the ring stage. The parasites are brought into contact with the products for 48 h at 37° C. and 5% CO2. The growth of the parasite is then estimated by following tritiated hypoxanthine incorporation into the nucleic acids of the parasite. The IC50 values are determined graphically on curves of percentage inhibition of growth as a function of concentration. Thus, the antimalarial activity of SkE was evaluated according to the following protocol. […]
The filter is then placed in a cassette which is placed in the β-counter in order to measure the radioactivity. […]

Data set [9] concerns liver stages of Plasmodium falciparum. Description: In vitro activity against liver stages of P. falciparum in human primary hepatocytes. It counts as cell-based. Particulars: for therapeutic index TI=TC50/IC50: P. falciparum liver stages, human hepatocytes; for IC50: Plasmodium falciparum, Hepatocyte, 120 h, human primary hepatocytes, 5 days, SkE mean of two experiments. The protocol:
as §2

Where [10] appears, read: Vero cells versus P. falciparum.

On to `CCN(CC)CCCC(C)Nc1ccnc2cc(Cl)ccc12` (centres unmarked) [chloroquine, reference compound], for which, in data set [1] (intraperitoneally), the “ED50, dose inhibiting 50% of the growth of P. vinckei petteri” value worked out at 3 mg/kg/day.

As for `CCC(C)C(=O)O[C@@H]1[C@H]2C(C)=CC(=O)[C@@H](O)[C@]2(C)[C@H]2[C@@H](O)[C@H](O)[C@@]3(C)OC[C@@]24[C@@H]1OC(=O)[C@H](OC(=O)C(C)CC)[C@@H]34` (some centres unmarked) [SkE, Simalikalactone E], the “survival of the mice compared with chloroquine” value in data set [1] (all doses, p<0.05) is reported as “always better than that of the mice treated with CQ at the doses of 1”; in [1] (dose of 1 mg/kg/d), “equivalent to what is obtained for CQ at 10 mg/kg/d”. In [1] (ip at 1 mg/kg/day, monitored for 3 weeks, one experiment), the “mean survival time of the mice” value is reported as “greater than 18.6 days”. For the same molecule, the results for the “ED50, dose inhibiting 50% of the growth of P. vinckei petteri” value in [1] (intraperitoneally) and in data set [1] (orally) were 0.5 mg/kg/day and 1 mg/kg/day, respectively. Moreover, the “cytotoxicity on murine hepatocytes at highest concentration tested” value in data set [2] was “no toxicity was observed”. In data set [3], the IC50 at 2 days came to 1120 nM. Besides, the IC50 in data set [4] was 33 nM; in data set [5] it was 186 ± 16 nM; in [6] (Primates, Vero cells, read-out: inhibits 50% of the growth of Vero mammalian cells), 6.57 µM; in data set [8], 24 to 68 nM; in data set [9], 1200 ± 190 nM. For the same molecule, the “activity relative to primaquine on P. yoelii liver stages” value in data set [5] (fold more active than primaquine, same conditions) is reported as “at least 3 times”. In addition, the selectivity index entry in data set [6] (setting [10]) is on record as “greater than 100”. The “selectivity index with respect to P. falciparum compared with SkD” value in data set [6] (setting [10]) is recorded as “twice that of SkD”. In addition, the “toxicity compared with Simalikalactone D” value in [6] was “less than that of SkD”; in data set [6] (listed as Simalikalactone E), “less toxicity than Simalikalactone D”. This molecule gave an IC50 at 72 h in data set [7] of 6 µM. In [9], the “therapeutic index TI=TC50/IC50” value came to 75.

On to `COc1cc(NC(C)CCCN)c2ncccc2c1` (centres unmarked) [primaquine, reference compound], for which the IC50 in data set [5] was 640 nM; in data set [9], 800 nM. Further, the “therapeutic index TI=TC50/IC50” value in data set [9] is 81.
